Test results as given in US11633420B2, “Method of treating leukemia” (Epizyme, Inc., priority 2012, dated 2023).
pIC50: −log10 of the molar value.

Assays:
MV4;11 (MLL-AF4) cells = assay: In vitro anti-proliferative assay, MV4;11; type: cell-based, human; settings: up to 14 days
Procedure: (§1) In Vitro Anti-Proliferative Assay. The potency and selectivity of the anti-proliferative activity of the compounds of the present invention were assessed using a panel of MLL-rearranged and non-MLL-rearranged human leukemia cell lines. The MLL-rearranged panel included cell lines derived from ALL, AML and biphenotypic leukemias harboring MLL-AF4, MLL-AF9 or MLL-ENL fusions. These cell lines recruit DOT1L.
(§2) Exponentially growing cells were plated, in triplicate, in 96-well plates at a density of 3×10^4 cells/well in a final volume of 150 μl. […] Anti-proliferative activity was determined by cell viability measurements every 3-4 days for up to 14 days.

MOLM-13 (MLL-AF9) cells = assay: In vitro anti-proliferative assay, MOLM-13; type: cell-based, human; settings: up to 14 days
Procedure: as §1, §2

KOPN-8 (MLL-ENL) cells = assay: In vitro anti-proliferative assay, KOPN-8; type: cell-based, human; settings: up to 14 days
Procedure: as §1, §2

EOL-1 cells (MLL-PTD) = assay: In vitro anti-proliferative assay, EOL-1; type: cell-based; settings: Homo sapiens, EOL1, 336 h; EOL-1 (MLL-PTD), up to 14 days
Procedure: as §1, §2

[1] = tested on: Jurkat cells (non-MLL-rearranged); assay: In vitro anti-proliferative assay, Jurkat; type: cell-based, human; settings: up to 14 days
Procedure: as §1, §2

[2] = tested on: HL-60 cells (non-MLL-rearranged); assay: In vitro anti-proliferative assay, HL-60; type: cell-based, human; settings: HL-60, up to 14 days
Procedure: as §1, §2

MV4-11 xenograft tumors = assay: In vivo anti-proliferative assay, mouse xenograft model of MLL-rearranged leukemia; settings: 21 days
Procedure: In Vivo Anti-Proliferative Assay. The in vivo anti-tumor activity of the compounds of the present invention were assessed in a mouse xenograft model of MLL-rearranged leukemia. Four groups of 20 (Groups 1, 3, 4 and 5), and one group of 8 (Group 2) female nude mice (average weight of 0.023 kg) bearing MV4-11 xenograft tumors of sizes ranging from 80-120 mm^3 were implanted subcutaneously with minipumps (Alzet Model 2001). Group 1 received vehicle only from the pump. Group 2 received vehicle only from the pump plus ip injections tid (8 hours apart) of vehicle. […] Pumps were designed to last for 7 days and were exchanged twice to give total infusion duration of 21 days exposure. […] Blood samples were taken from Group 3 on days 7 and 14 at the following time points (3 animals per time point): 5 minutes pre-ip dose, and 15 min, 30 min, 1, 2, and 4 hours post ip dose. On day 21 three hours after the last ip injection, a single blood sample was taken from Group 3. Tumor size was measured every 4 days. After 21 days the study was terminated, and mean TGI calculated.

`CC(C)N(C[C@H]1O[C@@H](n2cnc3c(N)ncnc32)[C@H](O)[C@@H]1O)[C@H]1C[C@@H](CCc2nc3cc(C(C)(C)C)ccc3[nH]2)C1` [Compound 2, (2R,3R,4S,5R)-2-(6-amino-9H-purin-9-yl)-5-((((1r,3S)-3-(2-(5-(tert-butyl)-1H-benzo[d]imidazol-2-yl)ethyl)cyclobutyl)(isopropyl)amino)methyl)tetrahydrofuran-3,4-diol] was tested, and the “anti-proliferative activity (IC50)” value (MV4;11 (MLL-AF4) cells) was “potent nanomolar anti-proliferative activity”, the “anti-proliferative activity (IC50)” value (MOLM-13 (MLL-AF9) cells) was “potent nanomolar anti-proliferative activity” and the “anti-proliferative activity (IC50)” value (KOPN-8 (MLL-ENL) cells) was “potent nanomolar anti-proliferative activity”. For the same molecule, the pIC50 (EOL-1 cells (MLL-PTD)) was 7.96, the anti-proliferative activity [1] was “no activity” and the anti-proliferative activity [2] was “no activity”. The “TGI compared to controls” value (MV4-11 xenograft tumors; 56 mg/kg/day minipump, non-statistically significant) was 43%, the “TGI compared to controls” value (MV4-11 xenograft tumors; 112 mg/kg/day minipump, non-statistically significant) was 38% and the “TGI compared to controls” value (MV4-11 xenograft tumors; Group 3: 112 mg/kg/day minipump plus ip 20 mg/kg tid (172 mg/kg/day), statistically significant) was over 70%.
